Data on two compounds can be found in patent US12599596B2, “Anti-tumor pharmaceutical composition based on immune checkpoint blockade and use thereof” (Shanghai Hui Tian Jin Ze Biotech Co., Ltd., priority 2023, dated 2026).

Counter-ions that a name gives are not always drawn.

One experiment has as its system PD-L1 in tumor cells. As to the kind of experiment: Expression of PD-L1 in tumor cells with paroxetine hydrochloride. Type of experiment: cell-based. The conditions noted are these: no method or data given.
Experiment [1] relates to MC38 colorectal cancer cells. The experiment can be described thus: MC38 subcutaneous tumor model in C57BL/6 mice, Embodiment 2. The experiment is classed as in vivo. The conditions noted are these: for Tumor volume: CBD 100 mg/kg, PAR 10 mg/kg, vitamin E 50 mg/kg, thymosin 2 mg/kg. As for the experimental part:
• 1. MC38 colorectal cancer cells were inoculated into 6-week-old female C57BL/6 mice (1×10^6 cells/mouse) to establish a subcutaneous tumor model. After the tumor volume reached 50 mm^3, the mice were grouped and administered according to the following pharmaceutical combinations: (1) control group (no administration), (2) anti-PD-1 ([…]/time) group, (3) anti-CTLA4 ([…]/time) group, (4) CBD (100 mg/kg) group, (5) CBD (100 mg/kg)+anti-CTLA4 ([…]/time) group, (6) PAR (10 mg/kg) group, (7) PAR (10 mg/kg)+anti-CTLA4 ([…]) group, (8) CBD (100 mg/kg)+PAR (10 mg/kg) group, (9) vitamin E(a-tocopherol) (50 mg/kg)+thymosin (2 mg/kg) group, (10) CBD (100 mg/kg)+vitamin E(α-tocopherol) (50 mg/kg)+thymosin (2 mg/kg) group, (11) PAR (10 mg/kg)+vitamin E(α-tocopherol) (50 mg/kg)+thymosin (2 mg/kg), (12) PAR (10 mg/kg)+CBD (100 mg/kg)+vitamin E(α-tocopherol) (50 mg/kg)+thymosin (2 mg/kg) group, (13) CBD (100 mg/kg)+vitamin E(α-tocopherol) (50 mg/kg)+thymosin (2 mg/kg)+anti-CTLA4 ([…]/time) group, (14) PAR (10 mg/kg)+vitamin E(α-tocopherol) (50 mg/kg)+thymosin (2 mg/kg)+anti-CTLA4 ([…]) group, and (15) CBD (100 mg/kg)+PAR (10 mg/kg)+vitamin E(α-tocopherol) (50 mg/kg)+thymosin (2 mg/kg)+anti-CTLA4 ([…]/time) group. The tumor weight and volume, and body weight of the mice were monitored once every 2 days. The tumor volume was calculated as follows: tumor volume (mm^3)=0.5×(length)x(width)^2. The mice were sacrificed 14 days after drug administration, and the tumors were dissected.
The dissolving mode of the pharmaceutical composition was as follows: the pharmaceutical composition was dissolved in 10% DMSO+corn oil, the mice were gavaged with the pharmaceutical composition at 100 pl/mouse, and the mice in the control group were injected with the same volume of the solvent. • 2. MC38 colorectal cancer cells were inoculated into 6-week-old female nude mice (1×10^6 cells/mouse) to establish a subcutaneous tumor model. After the tumor volume reached 50 mm^3, the mice were grouped and administered according to the following pharmaceutical combinations: (1) control group, (2) CBD (100 mg/kg)+vitamin E(α-tocopherol) (50 mg/kg)+thymosin (2 mg/kg) group, (3) PAR (10 mg/kg)+vitamin E(α-tocopherol) (50 mg/kg)+thymosin (2 mg/kg) group, and (4) PAR (10 mg/kg)+CBD (100 mg/kg)+vitamin E(α-tocopherol) (50 mg/kg)+thymosin (2 mg/kg) group. The tumor weight and volume, and the body weight of the mice were monitored once every 2 days. The tumor volume was calculated as follows: tumor volume (mm^3)=0.5×(length)x(width)^2. The mice were sacrificed 14 days after drug administration, and the tumors were dissected. (II) Experimental Results 1.

The subject of the next experiment is MC38 colon cancer cells. As to the kind of experiment: MC38 subcutaneous tumor model in C57BL/6 mice, Embodiment 5. Type of experiment: in vivo. The note with it: for Tumor volume: CBD 100 mg/kg, PAR 5 mg/kg, vitamin E 50 mg/kg; for therapeutic / tumor inhibition effect in words: normal mice, Embodiment 5, comparison between groups. As for the experimental part: MC38 colon cancer cells were inoculated into 6-week-old female C57BL/6 mice (1×10^6 cells/mouse) to establish a subcutaneous tumor model. After the tumor volume reached 50 mm^3, the mice were grouped and administered with the following pharmaceutical combinations: (1) control group (no drug administration), (2) anti-PD-1 ([…] per time) group, (3) vitamin E(α-tocopherol) (50 mg/kg) group, (4) CBD (100 mg/kg) group, (5) CBD (100 mg/kg)+vitamin E(α-tocopherol) (50 mg/kg) group, (6) PAR (5 mg/kg) group, (7) PAR (5 mg/kg)+vitamin E(α-tocopherol) (50 mg/kg) group, (8) CBD (100 mg/kg)+PAR (5 mg/kg) group, and (9) PAR (5 mg/kg)+CBD (100 mg/kg)+vitamin E(α-tocopherol) (50 mg/kg) group.
The tumor weight, tumor volume, and mouse body weight were monitored once every 2 days. The tumor volume was calculated as follows: tumor volume (mm^3)=0.5×(length)×(width)^2. The mice were sacrificed 14 days after drug administration, and the tumors were dissected.
The dissolving mode of the pharmaceutical composition was as follows: the pharmaceutical composition was dissolved in 10% DMSO+corn oil, the mice were gavaged with the pharmaceutical composition at 100 μl/mice, and the mice in the control group were injected with the same volume of the solvent.

As to `Fc1ccc([C@@H]2CCNC[C@H]2COc2ccc3c(c2)OCO3)cc1` [PAR, paroxetine hydrochloride], the “expression of PD-L1 in tumor cells” value in the experiment with PD-L1 in tumor cells is “reduces the expression of PD-L1”. Moreover, the Tumor volume worked out at 0 mm^3 in experiment [1] (Day 0); 43.63 mm^3 in experiment [1] (Day 2); 68.09 mm^3 in experiment [1] (Day 4); 83.54 mm^3 in experiment [1] (Day 6); 177.63 mm^3 in experiment [1] (Day 8); 263.45 mm^3 in experiment [1] (Day 10). In addition, the Tumor volume in experiment [1] (Day 12) worked out at 393.48 mm^3; in experiment [1] (Day 14) it was 510.89 mm^3; in experiment [1] (Day 16), 608.61 mm^3; with MC38 colon cancer cells (Day 0), 0 mm^3; in the experiment on MC38 colon cancer cells (Day 4), 44.74 mm^3; in the experiment on MC38 colon cancer cells (Day 6), 61.50 mm^3. Also, the Tumor volume is on record as 85.83 mm^3 with MC38 colon cancer cells (Day 8); 136.25 mm^3 in the experiment with MC38 colon cancer cells (Day 10); 176.62 mm^3 in the experiment on MC38 colon cancer cells (Day 12); 262.06 mm^3 with MC38 colon cancer cells (Day 14); 302.90 mm^3 in the experiment on MC38 colon cancer cells (Day 16). Also, the “therapeutic / tumor inhibition effect in words” value in experiment [1] (normal mice, Embodiment 2, comparison between groups) is “equivalent therapeutic effects”; with MC38 colon cancer cells, “equivalent therapeutic effects”.

Take `Cc1c(C)c2c(c(C)c1O)CC[C@@](C)(CCC[C@H](C)CCC[C@H](C)CCCC(C)C)O2` [VE, a-tocopherol]: the Tumor volume is reported as 0 mm^3 in the experiment on MC38 colon cancer cells (Day 0); 58.77 mm^3 in the experiment on MC38 colon cancer cells (Day 4); 124.89 mm^3 in the experiment on MC38 colon cancer cells (Day 6); 191.75 mm^3 in the experiment with MC38 colon cancer cells (Day 8); 284.59 mm^3 with MC38 colon cancer cells (Day 10); 459.67 mm^3 with MC38 colon cancer cells (Day 12). The figures for the Tumor volume in the experiment with MC38 colon cancer cells (Day 14) and with MC38 colon cancer cells (Day 16) were 532.81 mm^3 and 624.47 mm^3, respectively. Moreover, in the experiment on MC38 colon cancer cells, the “therapeutic / tumor inhibition effect in words” value was “no significant therapeutic effect”.
